In the supplement of paper PMC11061612:

Tests used:
Assay in all cases: Bliss excess, mean over the matrix (fraction); higher = more synergy
[1] = system: CGTH-W-1 (Thyroid Gland Carcinoma)
In short: (§1)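 Cell lines in DMEM/F12 or RPMI with 10% FBS were plated in 1536-well plates, held 24 hours at 37°C, 5% CO2, then given two-drug dose matrices for 72 hours (DMSO typically 0.2%). Viability was read by CellTiter-Glo 2.0 luminescence and scaled as inhibition from 0 (vehicle wells) to 1 (blank wells). Combination Emax is the second-highest inhibition in the matrix; Bliss excess is observed combination effect minus expected EA + EB − EA·EB, EA and EB being single-agent effects.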

KP-N-YN (Neuroblastoma) = system: KP-N-YN (Neuroblastoma)
In short: as §1

HCC70 (Breast Carcinoma) = system: HCC70 (Breast Carcinoma)
In short: as §1

[2] = system: UACC-812 (Breast Carcinoma)
In short: as §1

[3] = system: HCC1428 (Breast Carcinoma)
In short: as §1

[4] = system: NCI-H1703 (Squamous Cell Lung Carcinoma)
In short: as §1

COLO-792 (Melanoma) = system: COLO-792 (Melanoma)
In short: as §1

[5] = system: SK-HEP-1 (Hepatocellular Carcinoma)
In short: as §1

[6] = system: NCI-H2228 (Lung Adenocarcinoma)
In short: as §1

[7] = system: Jurkat (T-Lymphoblastic Leukemia)
In short: as §1

EW-7 (Ewing's Sarcoma) = system: EW-7 (Ewing's Sarcoma)
In short: as §1

[8] = system: NCI-H1651 (Lung Adenocarcinoma)
In short: as §1

[9] = system: CAL-27 (Oral Cavity Carcinoma)
In short: as §1

EB2 (Burkitt's Lymphoma) = system: EB2 (Burkitt's Lymphoma)
In short: as §1

[10] = system: NCI-H2087 (Lung Adenocarcinoma)
In short: as §1

[11] = system: JHH-2 (Hepatocellular Carcinoma)
In short: as §1

A204 (Rhabdomyosarcoma) = system: A204 (Rhabdomyosarcoma)
In short: as §1

[12] = system: KYSE-220 (Esophageal Squamous Cell Carcinoma)
In short: as §1

[13] = system: huH-1 (Hepatocellular Carcinoma)
In short: as §1

RH-41 (Rhabdomyosarcoma) = system: RH-41 (Rhabdomyosarcoma)
In short: as §1

Compound: CC1(C)CCC(CN2CCN(c3ccc(C(=O)NS(=O)(=O)c4ccc(NCC5CCOCC5)c([N+](=O)[O-])c4)c(Oc4cnc5[nH]ccc5c4)c3)CC2)=C(c2ccc(Cl)cc2)C1 [Venetoclax] + Cn1cnc2c(F)c(Nc3ccc(Br)cc3Cl)c(C(=O)NOCCO)cc21 [Selumetinib] (first compound max 1 µM, 7x7, partner max 3 µM)
- Bliss excess [1]: -0.0482
- Bliss excess (KP-N-YN (Neuroblastoma)): -0.0102
- Bliss excess (HCC70 (Breast Carcinoma)): 0.0707
- Bliss excess [2]: -0.0297
- Bliss excess [3]: -0.026
- Bliss excess [4]: 0.0061
- Bliss excess (COLO-792 (Melanoma)): 0.0083
- Bliss excess [5]: -0.0378
- Bliss excess [6]: -0.0135
- Bliss excess [7]: 0.0054
- Bliss excess (EW-7 (Ewing's Sarcoma)): -0.0058
- Bliss excess [8]: -0.0367
- Bliss excess [9]: -0.0087
- Bliss excess (EB2 (Burkitt's Lymphoma)): 0.0012
- Bliss excess [10]: -0.0207
- Bliss excess [11]: 0.016
- Bliss excess (A204 (Rhabdomyosarcoma)): -0.0293
- Bliss excess [12]: 0.0102
- Bliss excess [13]: -0.0539
- Bliss excess (RH-41 (Rhabdomyosarcoma)): 0.0237

Compound: Cn1cnc2c(F)c(Nc3ccc(Br)cc3Cl)c(C(=O)NOCCO)cc21 [Selumetinib] + C=CCn1c(=O)c2cnc(Nc3ccc(N4CCN(C)CC4)cc3)nc2n1-c1cccc(C(C)(C)O)n1 [AZD1775] (first compound max 10 µM, partner max 1 µM)
- Bliss excess [1]: -0.0427
- Bliss excess (KP-N-YN (Neuroblastoma)): -0.0751
- Bliss excess (HCC70 (Breast Carcinoma)): 0.0361
- Bliss excess [2]: -0.0425
- Bliss excess [3]: -0.0409
- Bliss excess [4]: -0.0612
- Bliss excess (COLO-792 (Melanoma)): 0.0092
- Bliss excess [5]: 0.0127
- Bliss excess [6]: -0.0613
- Bliss excess [7]: -0.0309
- Bliss excess (EW-7 (Ewing's Sarcoma)): -0.0115
- Bliss excess [8]: -0.0692
- Bliss excess [9]: 0.0384
- Bliss excess (EB2 (Burkitt's Lymphoma)): -0.071
- Bliss excess [10]: 0.0084
- Bliss excess [11]: -0.0571
- Bliss excess (A204 (Rhabdomyosarcoma)): -0.0511
- Bliss excess [12]: -0.0391
- Bliss excess [13]: -0.116
- Bliss excess (RH-41 (Rhabdomyosarcoma)): -0.0189

Compound: COc1nnc2ccc(N3CCC(c4ccc(OCCN5CCN(C)C(=O)[C@H]5C)cc4)CC3)nn12 [AZD5153] + CC1(C)CCC(CN2CCN(c3ccc(C(=O)NS(=O)(=O)c4ccc(NCC5CCOCC5)c([N+](=O)[O-])c4)c(Oc4cnc5[nH]ccc5c4)c3)CC2)=C(c2ccc(Cl)cc2)C1 [Venetoclax] (first compound max 1 µM, 7x7, partner max 1 µM)
- Bliss excess [1]: -0.0407
- Bliss excess (KP-N-YN (Neuroblastoma)): -0.0809
- Bliss excess (HCC70 (Breast Carcinoma)): -0.0013
- Bliss excess [2]: -0.0947
- Bliss excess [3]: -0.0592
- Bliss excess [4]: -0.0404
- Bliss excess (COLO-792 (Melanoma)): -0.0162
- Bliss excess [5]: -0.0153
- Bliss excess [6]: -0.0523
- Bliss excess [7]: -0.0444
- Bliss excess (EW-7 (Ewing's Sarcoma)): -0.0122
- Bliss excess [8]: -0.0338
- Bliss excess [9]: -0.0394
- Bliss excess (EB2 (Burkitt's Lymphoma)): -0.0677
- Bliss excess [10]: -0.0427
- Bliss excess [11]: -0.0068
- Bliss excess (A204 (Rhabdomyosarcoma)): -0.0383
- Bliss excess [12]: -0.015
- Bliss excess [13]: -0.0962
- Bliss excess (RH-41 (Rhabdomyosarcoma)): 0.0374

Compound: CN(C)CCCOc1ccc(-c2ccc3ncc4c(c3c2)n(C2CCOCC2)c(=O)n4C)cn1 [AZD0156] + C[C@@H]1COCCN1C2=NC(=NC(=C2)C3(CC3)[S@](=N)(=O)C)C4=C5C=CNC5=NC=C4 [AZD6738] (first compound max 1 µM, 7x7, partner max 10 µM)
- Bliss excess [1]: -0.0189
- Bliss excess (KP-N-YN (Neuroblastoma)): 0.0249
- Bliss excess (HCC70 (Breast Carcinoma)): -0.0103
- Bliss excess [2]: -0.0108
- Bliss excess [3]: -0.0541
- Bliss excess [4]: -0.0341
- Bliss excess (COLO-792 (Melanoma)): -0.0297
- Bliss excess [5]: -0.0034
- Bliss excess [6]: -0.024
- Bliss excess [7]: 0.1
- Bliss excess (EW-7 (Ewing's Sarcoma)): 0.0318
- Bliss excess [8]: -0.0468
- Bliss excess [9]: 0.0433
- Bliss excess (EB2 (Burkitt's Lymphoma)): -0.0562
- Bliss excess [10]: -0.0008
- Bliss excess [11]: -0.0249
- Bliss excess (A204 (Rhabdomyosarcoma)): -0.038
- Bliss excess [12]: 0.0134
- Bliss excess [13]: 0.0019
- Bliss excess (RH-41 (Rhabdomyosarcoma)): 0.0593
